# Experiments:
# guard cells = assay: Nitric oxide production in guard cells of epidermal peels (DAF-2DA fluorescence); type: cell-based, tomato; conditions: for NO production and stomatal closure in ABA-deficient mutant: Sitiens epidermal peels, 100 mM Suc or 100 μM ABA; for effect on NO levels in guard cells: 100 mM sorbitol or 20 mM NAG with 100 mM Suc
# Protocol: Detection of nitric oxide (NO) levels in stomata is performed as follows: Epidermal peels are prepared and incubated in MES buffer [25 mM MES-KOH, pH=6.15 and 10 mM KCl (MES, 2-(N-morpholino)-ethane sulfonic acid; Sigma-Aldrich] with or without 20 mM NAG, for 2.5 h under steady light, and then loaded with 60 μM NO indicator dye, DAF-2DA (4, 5-diaminofluorescein diacetate; Sigma-Aldrich), diluted in MES buffer with or without 20 mM N-acetyl glucosamine (NAG, Sigma-Aldrich) and left for an additional 50 min. Then, the peels are washed with MES 3 times and re-incubated for 30 min in the buffer (control, set as 100% fluorescence) or in 100 mM sorbitol, 100 mM sucrose and 20 mM NAG. The peels are then photographed under a microscope (see Materials and Methods, “Confocal microscopy imaging”). Three to four biological repeats containing 20-30 stomata each are included in each experiment and each experiment is repeated several times. Images are analyzed using the ImageJ software histogram tool to evaluate fluorescence intensity and the fit-ellipse tool to determine stomatal aperture. It is possible to use epidermal strips from different species, use different treatments solutions and different timings, all to our decision. Images are acquired using the OLYMPUS IX 81 (Japan) inverted laser scanning confocal microscope (FLUOVIEW 500) equipped with a 488-nm argon ion laser and a 60X1.0 NA PlanApo water immersion objective. Nitric oxide- DAF-2DA (4, 5-diaminofluorescein diacetate; Sigma-Aldrich) fluorescence is excited by 488-nm light and the emission is collected using a BA 505-525 filter. GFP is excited by 488-nm light and the emission is collected using a BA 505-525 filter. A BA 660 IF emission filter is used to observe chlorophyll autofluorescence. Confocal optical sections are obtained at 0.5-μm increments. The images are color-coded green for GFP and magenta for chlorophyll autofluorescence.
# [1] = system: stomata (stomatal aperture); assay: Stomatal aperture of intact leaves immersed in artificial apoplastic sap, measured on epidermal imprints; type: cell-based, tomato (Solanum lycopersicum cv. MP-1); conditions: 3 h
# Protocol: Stomatal aperture and density are determined using the rapid imprinting technique described by […] and Sack (2002). This approach allows to reliably score hundreds of stomata from each experiment, each of which is sampled at the same time. Light-bodied vinylpolysiloxane dental resin (Heraeus-Kulzer, Hanau, Germany) is attached to the abaxial leaf side and then removed as soon as it dries (1 min). The resin epidermal imprints are than covered with nail polish, which removed once it had dried out and serves as a mirror image of the resin imprint. The nail-polish imprints are put on glass cover slips and photographed under bright-field microscope. Stomata images are later analyzed to determine aperture size using the ImageJ software (World Wide Web (dot) rsb (dot) info (dot) nih (dot) gov/ij/) fit-ellipse tool or any other software that can process and analyze images. A microscopic ruler is used for the size calibration. Additional information can be obtained from the software such as stomata width, length, area, perimeter etc. To assess stomatal responses, leaflets are cut and immediately immerse in artificial xylem sap solution (AXS) (Wilkinson and Davies, 1997) containing 100 mM sucrose (Duchefa Biochemie) with or without 20 mM N-acetyl glucosamine (NAG, Sigma-Aldrich), 100 mM or 200 mM glucose (Duchefa Biochemie), 100 mM or 200 mM fructose (Sigma-Aldrich), 100 mM 2-deoxyglucose (Sigma-Aldrich), 10 mM or 100 mM mannose (Sigma-Aldrich), 100 mM sorbitol (Sigma-Aldrich) or 100 mM or 200 mM mannitol (Duchefa Biochemie). The sorbitol and mannitol treatments serve as non-metabolic osmotic controls. Imprints are taken 3 h after immersion and stomatal aperture is analyzed. Different plant species can be used as well as, AXS solutions, treatment solutions and different timings to our decision.
compound,measurement,setting,value
"OC[C@H]1O[C@@](CO)(O[C@H]2O[C@H](CO)[C@@H](O)[C@H](O)[C@H]2O)[C@@H](O)[C@@H]1O [Suc, sucrose]",effect on guard-cell fluorescence of AtHXK1-expressing line,"guard cells; HK4 epidermal peels, Suc added",even more intense fluorescence
same,NO production and stomatal closure in ABA-deficient mutant,guard cells; 30 min,did not result in any increase in fluorescence or stomatal closure
same,increase in guard-cell fluorescence (NO levels),"guard cells; WT epidermal peels, 100 mM, 30 min",3.5 fold
same,effect on stomatal aperture of AtHXK1-expressing plants,"[1]; HK4 leaves, 100 mM Suc",caused the stomata to close even further
same,decrease of stomatal aperture size relative to sorbitol,"[1]; WT tomato leaflets, 100 mM Suc vs 100 mM sorbitol",29%
"O=CC[C@@H](O)[C@H](O)[C@H](O)CO [2-dG, 2-deoxyglucose]",effect on stomatal aperture,"[1]; WT leaves, vs mannitol osmotic control",reduced stomatal aperture
"CC(=O)N[C@H]1C(O)O[C@H](CO)[C@@H](O)[C@@H]1O (stereo partly drawn) [NAG, N-acetyl glucosamine]",time to resumption of NO production after washing out NAG,guard cells; NAG washed out with 100 mM Suc,less than 30 min
same,effect on NO levels in guard cells,"guard cells; WT epidermal peels, 30 min",prevented the production of NO
same,effect on Suc-induced stomatal closure of AtHXK1-expressing plants,"[1]; HK4 leaves, 100 mM Suc with 20 mM NAG",abolished the closing effect of Suc
same,effect on Suc-induced stomatal closure,"[1]; WT leaves, 100 mM Suc with 20 mM NAG",almost completely abolished the effect of Suc and prevented stomatal closure
OC[C@@H](O)[C@@H](O)[C@H](O)[C@@H](O)CO [sorbitol],effect on NO levels in guard cells,"guard cells; WT epidermal peels, 30 min",had no effect on NO levels
"CC1=CC(=O)CC(C)(C)[C@@]1(O)/C=C/C(C)=C\C(=O)O [ABA, abscisic acid]",NO production and stomatal closure in ABA-deficient mutant,guard cells; 30 min,did trigger the production of NO

# Source: patent US10975385B2, “Methods of modulating stomata conductance and plant expression constructs for executing same” (The State of Israel, Ministry of Agriculture & Rural …, priority 2011, dated 2021)
